Test results as given in patent US20060004207A1, “Preparation of new pharmaceutically suitable salt of losartan and forms thereof with new purification and isolation methods” (priority 2003, published 2006).
Read-outs that look alike come from different tables or passages of the source. Values belong to the molecule of their own block, whether it stands above or below them.

Key:
[1] = Rate of dissolution of the substance, 75 mg in 50 ml 0.1 M HCl; format: physicochemical
[2] = Solubility of crystalline forms of losartan potassium
[3] = for Loss of weight: ~10 mBar
Description: The sample was exposed to temperatures between 60° C. and 80° C. and negative pressure ˜10 mBar.

[4] = Stability test, amorphous versus form with bound water, 4 days in air at 60/80° C., dry or moist; format: physicochemical; details: for Physical form when exposed to moisture: 4 days
Description: For evaluation and comparison, respectively, of the stability, four tests were conducted.

[5] = Dynamic vapour sorption (DVS); format: physicochemical
Description: Measurements were performed on instrument DVS—The Sorption Solution, Surface Measurement Systems Ltd. UK.
The principle of measurement is as follows: The sample measured is placed on one side of a very precise scale, a reference non-hydroscopic sample having been placed on the other side. The scale is located in an isolated chamber in which the relative humidity can be set. The hydroscopic sample being measured binds moisture from the environment, and an increase of mass is detected.
The ordinate axis represents the change of mass, abscise representing the humidity.

[6] = 10 g exposed to heat while dried
Description: Temperature stability of the sample of polymorph Form Y was tested by exposing 10 g polymorph Form Y potassium salt of -n-butyl-4-chloro-5-hydroxymethyl-1-[[2′-(1H-tetrazol-5-yl)[1,1′-biphenyl]-4-yl]methyl]-1H-imidazole to heat while dried.

RATE OF DISSOLUTION [1]: 16 min
solubility ([2]; 0.1 M HCl, simulated gastric fluid): 1.52 mg/mL
solubility ([2]; water): 630 mg/mL
Structure (SMILES): CCCCc1nc(Cl)c(CO)n1Cc1ccc(-c2ccccc2-c2nn[nH]n2)cc1 [Form I, losartan potassium, reference compound]

Structure (SMILES): CCCCc1nc(Cl)c(CO)n1Cc1ccc(-c2ccccc2-c2nnn[n-]2)cc1.[K+] [LST-K-1481, potassium salt of 2-n-butyl-4-chloro-5-hydroxymethyl-1-[[2′-(1H-tetrazol-5-yl)[1,1′-biphenyl]-4-yl]methyl]-1H-imidazole]
RATE OF DISSOLUTION [1]: 14 min
SOLUBILITY in 0.1 M HCl ([2]; in 0.1 M HCl): 1.74 mg/mL

Structure (SMILES): CCCCc1nc(Cl)c(CO)n1Cc1ccc(-c2ccccc2-c2nnn[n-]2)cc1.[K+] [LST-K-1496/1, potassium salt of 2-n-butyl-4-chloro-5-hydroxymethyl-1-[[2′-(1H-tetrazol-5-yl)[1,1′-biphenyl]-4-yl]methyl]-1H-imidazole]
RATE OF DISSOLUTION [1]: 13 min

Structure (SMILES): CCCCc1nc(Cl)c(CO)n1Cc1ccc(-c2ccccc2-c2nnn[n-]2)cc1.[K+] [LST-K-3279, potassium salt of 2-n-butyl-4-chloro-5-hydroxymethyl-1-[[2′-(1H-tetrazol-5-yl)[1,1′-biphenyl]-4-yl]methyl]-1H-imidazole]
Polymorphic form after storage ([3]; 45-day storage in a closed flask at room temperature): did not change its polymorphic forms
Loss of weight ([3]; 60° C.): 0.79%
Loss of weight ([3]; 80° C.): 0.90%
Crystalline structure after heat and negative pressure ([3]; between 60° C. and 80° C., negative pressure ~10 mBar): did not change under any of the conditions

RATE OF DISSOLUTION [1]: 8 min
Structure (SMILES): CCCCc1nc(Cl)c(CO)n1Cc1ccc(-c2ccccc2-c2nn[nH]n2)cc1 [Milled sample of Form I, losartan potassium, reference compound]

Water content at repeated sorption, at which point the amorphous sample crystallizes ([5]; at 60% relative humidity): approximately 13%
Weight increase ([5]; at 70-80% relative humidity): 20-26%
Absorption of water (increase of mass) ([5]; at 80% relative humidity, first sorption): 25%
Structure (SMILES): CCCCc1nc(Cl)c(CO)n1Cc1ccc(-c2ccccc2-c2nn[nH]n2)cc1 [amorphous losartan potassium, losartan potassium]
Hygroscopicity (comparison) [4]: essentially more hygroscopic than the form with bound water of losartan potassium
Physical form when exposed to moisture [4]: merged into a glassy mass and then white crystals of form with bound water were formed

Structure (SMILES): CCCCc1nc(Cl)c(CO)n1Cc1ccc(-c2ccccc2-c2nnn[n-]2)cc1.[K+] [crystalline form with bound water, losartan potassium]
Stability to temperature and moisture ([4]; 4 days in air, 60° C. or 80° C., dry atmosphere or moisture): at least as stable as amorphous
Physical form when exposed to moisture [4]: maintained the powdered form
Content of water in sample after crystallization ([5]; after crystallization at 80% relative humidity): approximately 13%
Relative humidity at which bound water is lost and the sample transforms into amorphous form ([5]; decreasing relative humidity): below 20%
Solubility (comparison in words) ([2]; in water): less soluble than known Form I, or amorphous losartan potassium

Structure (SMILES): CCCCc1nc(Cl)c(CO)n1Cc1ccc(-c2ccccc2-c2nnn[n-]2)cc1.[K+] [polymorph Form Y, potassium salt of 2-n-butyl-4-chloro-5-hydroxymethyl-1-[[2′-(1H-tetrazol-5-yl)[1.1′-biphenyl]-4-yl]methyl]-1H-imidazole]
Polymorph form after exposure to heat while dried [6]: Polymorph Form X was obtained
